Results on 19 molecules are retold here after patent publication US11407745B2, “Indazole derivatives and pharmaceutical composition for preventing, alleviating or treating cancer containing the same” (KOREA INSTITUTE OF SCIENCE AND TECHNOLOGY, priority 2019, dated 2022).

Read-outs that look alike come from different tables or passages of the source.

Series [1] concerns K-562 (human leukemia cancer) cells. Conditions: positive controls, values in the references; read-out: GI50, μm K562; cited from earlier work.
Series [2] deals with T1, ABL^wild (Homo sapiens, UniProt P00519). The settings on record: positive controls, values in the references; cited from earlier work.
Series [3] deals with T2, ABL^T315I (Homo sapiens, UniProt P00519, T315I). Conditions: positive controls, values in the references; cited from earlier work.
Series [4] deals with T2, ABL^T315I. The series is described as follows: Hot Spot kinase assay, ABL T315I. The series is classed as biochemical. Conditions: for IC50: ATP 10 μM, 25° C., 120 minutes. On the procedure:
(§1) Kinase analysis was conducted in a “Hot Spot” analysis platform manner. Specific kinase/substrate pairs and cofactors were prepared in a reaction buffer (20 mM HEPES (pH 7.5), 10 mM MgCl2, 1 mM EGTA, 0.02% Brij35, 0.02 mg/ml BSA, 0.1 mM Na3VO4, 2 mM DTT and 1% DMSO). 10 concentrations of compounds that were serially diluted 3 times in sequence from a concentration of 20 μM were added to the reaction mixture, and a mixture of ATP (10 μM, Sigma) and 33P ATP (Perkin Elmer) was added thereto after 20 minutes.

For series [5], the target named is T1, ABL^wild. Nature of the series: Hot Spot kinase assay, ABL wild type. The format is biochemical. Conditions: for IC50: ATP 10 μM, 25° C., 120 minutes. On the procedure:
as §1

Series [6] concerns K-562 (human leukemia cancer) cells. The series is described as follows: MTT assay, anti-proliferative effect on K-562. The format is cell-based. The settings on record: for GI50: Homo sapiens, MTT; for fold higher inhibitory effect than imatinib (K-562 GI50): versus imatinib positive control; for fold higher inhibitory effect than nilotinib (K-562 GI50): versus nilotinib. On the procedure:
The cell line used for an MTT assay was K-562 (human leukemia cancer), and was obtained from the Korea Cell Line Bank and then cultured. The medium herein used was RPMI 1640 medium containing 10% fetal bovine serum, and the culture was conducted in a constant-temperature constant-humidity incubator (37° C., 5% CO2). The cells were seeded at a density of 3×10^3 cells/well in a 96-well microplate and cultured in a CO2 incubator for 24 hours, the medium was removed, and further culture was performed for 72 hours in 100 μl of respective inhibitor solutions diluted to different concentrations. 15 μl of an MTT solution (Promega, CellTiter 96) was added thereto and cultured for 4 hours. Then, blue formazan, formed by adding 100 μl of a stop solution (Promega, CellTiter 96), was dissolved.
After the culture solution was allowed to stand for 18 hours or more, absorbance was measured at 570 nm to obtain IC50 (a concentration at which 50% of cancer cells are inhibited).
(In general: Tetrazolium assays rely on reduction of a dye to a coloured formazan, in cell work by metabolically active cells.)

The target in series [7] is DDR1 (Homo sapiens, UniProt Q08345). Nature of the series: Hot Spot kinase assay, DDR1. The format is biochemical. The settings on record: for IC50: ATP 10 μM, 25° C., 120 minutes. On the procedure: The kinase inhibitory effect of the compounds of Compound Nos. 1 to 16 was measured. Kinase analysis was conducted in a “Hot Spot” analysis platform manner. Specific kinase/substrate pairs and cofactors were prepared in a reaction buffer (20 mM HEPES (pH 7.5), 10 mM MgCl2, 1 mM EGTA, 0.02% Brij35, 0.02 mg/ml BSA, 0.1 mM Na3VO4, 2 mM DTT and 1% DMSO). 10 concentrations of compounds that were serially diluted 3 times in sequence from a concentration of 20 μM were added to the reaction mixture, and a mixture of ATP (10 μM, Sigma) and 33P ATP (Perkin Elmer) was added thereto after 20 minutes. The reaction was conducted at 25° C. for 120 minutes, the spots during the reaction were filtered using P81 ion exchange filter paper (Whatman #3698-915), and the unbound phosphate was removed by washing with 0.1% phosphoric acid using a filter.

For series [8], the system named is CML patients. The settings on record: primary therapeutic agent for CML patients; cited from earlier work.
For series [9], the system named is patients. The settings on record: patients administered with ponatinib; cited from earlier work.
The mark [10] stands for this setting: K562, 72 hours treatment, read-out: GI50, μm K562.
Where [11] appears, read: K562, 72 hours, read-out: GI50 against K-562 cancer cells.

Chain of DDR1 (Q08345 19-913): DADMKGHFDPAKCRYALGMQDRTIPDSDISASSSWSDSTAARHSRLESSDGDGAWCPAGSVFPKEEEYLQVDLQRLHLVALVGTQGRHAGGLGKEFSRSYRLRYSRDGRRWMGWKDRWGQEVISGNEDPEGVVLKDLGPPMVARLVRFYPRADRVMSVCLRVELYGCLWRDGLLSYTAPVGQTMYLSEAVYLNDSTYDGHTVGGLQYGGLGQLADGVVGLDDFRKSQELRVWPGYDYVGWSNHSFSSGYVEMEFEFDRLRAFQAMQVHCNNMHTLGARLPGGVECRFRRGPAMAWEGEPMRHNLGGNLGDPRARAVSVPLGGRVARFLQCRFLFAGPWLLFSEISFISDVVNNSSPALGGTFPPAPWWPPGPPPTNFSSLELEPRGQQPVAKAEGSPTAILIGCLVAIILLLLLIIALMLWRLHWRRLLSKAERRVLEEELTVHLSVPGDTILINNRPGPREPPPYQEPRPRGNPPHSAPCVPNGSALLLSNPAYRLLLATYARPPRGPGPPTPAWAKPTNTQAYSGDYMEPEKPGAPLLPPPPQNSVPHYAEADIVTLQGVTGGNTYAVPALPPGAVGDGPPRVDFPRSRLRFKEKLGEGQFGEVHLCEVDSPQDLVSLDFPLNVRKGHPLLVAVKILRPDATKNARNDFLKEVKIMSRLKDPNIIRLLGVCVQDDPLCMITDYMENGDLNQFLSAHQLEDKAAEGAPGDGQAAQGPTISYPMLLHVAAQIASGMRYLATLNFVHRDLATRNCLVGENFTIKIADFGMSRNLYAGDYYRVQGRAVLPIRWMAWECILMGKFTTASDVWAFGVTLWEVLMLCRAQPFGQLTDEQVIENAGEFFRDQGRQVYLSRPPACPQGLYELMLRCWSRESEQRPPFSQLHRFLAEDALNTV

With `Nc1n[nH]c2cccc(-c3ccc(C(=O)N4CCN(C(=O)c5ccc(Cl)cc5Cl)CC4)cc3)c12` [(4-(4-(3-amino-1H-indazol-4-yl)benzoyl)piperazin-1-yl)(2,4-dichlorophenyl)methanone], the GI50 – broadly, the concentration at which growth is held to half of that of the control – in series [1] was 6500 nM. For the same molecule, the IC50 (as a rule, the concentration needed to halve the response being measured) in series [2] was 14 nM; in series [3], 450 nM.
Turning to `Nc1n[nH]c2cccc(C#Cc3cccc(NC(=O)c4cccc(C(F)(F)F)c4)c3)c12` [Compound No. 1, N-(3-((3-Amino-1H-indazol-4-yl)ethynyl)phenyl)-3-(trifluoromethyl)benzamide], the IC50 was found to be 2550 nM in [4], 313 nM in series [5] and 53.3 nM in series [7]. The GI50 in series [6] (setting [10]) turned out to be 1450 ± 1160 nM.
Turning to `Nc1n[nH]c2cccc(C#Cc3cccc(NC(=O)c4cc(C(F)(F)F)cc(C(F)(F)F)c4)c3)c12` [Compound No. 2, 4N-(3-((3-Amino-1H-indazol-4-yl)ethynyl)phenyl)-3,5-bis (trifluoromethyl)benzamide], the results for the IC50 in [5] and in series [7] were 667 nM and 96.5 nM, respectively.
Regarding `Cc1cn(-c2cc(C(=O)Nc3cccc(C#Cc4cccc5[nH]nc(N)c45)c3)cc(C(F)(F)F)c2)cn1` [Compound No. 3], the IC50 stood at 1290 nM in [4], 17.1 nM in series [5] and 13.1 nM in [7]. Moreover, the GI50 in series [6] (setting [10]) came out at 120 nM.
`Nc1n[nH]c2cccc(C#Cc3cccc(NC(=O)c4cc(F)cc(C(F)(F)F)c4)c3)c12` [Compound No. 4, N-(3-((3-Amino-1H-indazol-4-yl)ethynyl)phenyl)-3-fluoro-5-(trifluoromethyl)benzamide]: the IC50 came to 172 nM in series [5] and 82.8 nM in [7]. The GI50 in [6] (setting [10]) is 2100 ± 1110 nM.
The like results for `Nc1n[nH]c2cccc(C#Cc3cccc(NC(=O)c4cc(N5CCOCC5)cc(C(F)(F)F)c4)c3)c12` [Compound No. 5, N-(3-((3-Amino-1H-indazol-4-yl)ethynyl)phenyl)-3-morpholino-5-(trifluoromethyl)benzamide] were, in that order, 637 nM, 20.1 nM and 2140 ± 1150 nM.
With `Cc1ccc(C(=O)Nc2cccc(C#Cc3cccc4[nH]nc(N)c34)c2)cc1C(F)(F)F` [Compound No. 6, N-(3-((3-Amino-1H-indazol-4-yl)ethynyl)phenyl)-4-methyl-3-(trifluoromethyl)benzamide], the IC50 in series [4] turned out to be 2960 nM; in [5] it was 104 nM; in series [7], 22.6 nM. Also, the GI50 in series [6] (setting [10]) is 1620 ± 1240 nM.
Molecule `CN1CCN(c2ccc(C(=O)Nc3cccc(C#Cc4cccc5[nH]nc(N)c45)c3)cc2C(F)(F)F)CC1` [Compound No. 7, N-(3-((3-Amino-1H-indazol-4-yl)ethynyl)phenyl)-4-(4-methylpiperazin-1-yl)-3-(trifluoromethyl)benzamide] returned an IC50 in [7] of 31.9 nM.
On to `Nc1n[nH]c2cccc(C#Cc3cccc(NC(=O)c4ccc(N5CCOCC5)c(C(F)(F)F)c4)c3)c12` [Compound No. 8], for which, in [4], the “inhibitory activity against the T315I point mutation of ABL (in words)” value is “exhibited inhibitory activity” and the IC50 was found to be 183 nM. For the same molecule, in series [5], the “inhibitory activity against ABL (in words)” value is on record as “excellent inhibitory activity” and the IC50 worked out at 5.21 nM. Moreover, in series [6], the “proliferation inhibitory effect on K-562 cancer cells (in words)” value is “excellent anti-proliferative activity”, the “fold higher inhibitory effect than imatinib (K-562 GI50)” value is listed as 13 fold and the “fold higher inhibitory effect than nilotinib (K-562 GI50)” value was 4 fold. In series [6] (setting [11]), the GI50 was found to be 20 nM. Moreover, in series [7], the “inhibitory activity against DDR1 (in words)” value is “excellent inhibitory activity” and the IC50 was determined as 14.7 nM.
`Nc1n[nH]c2cccc(C#Cc3cccc(C(=O)Nc4cccc(C(F)(F)F)c4)c3)c12` [Compound No. 9]: the IC50 amounted to 210 nM in [5] and 18.4 nM in [7]. The GI50 in [6] (setting [10]) came to 3750 ± 1220 nM.
For `Nc1n[nH]c2cccc(C#Cc3cccc(C(=O)Nc4cc(C(F)(F)F)cc(C(F)(F)F)c4)c3)c12` [Compound No. 10, 3-((3-Amino-1H-indazol-4-yl)ethynyl)-N-(3,5-bis(trifluoromethyl)phenyl)benzamide], the IC50 is 186 nM in [5] and 33 nM in [7]. Further, the GI50 in [6] (setting [10]) came out at 460 ± 1340 nM.
Turning to `Cc1cn(-c2cc(NC(=O)c3cccc(C#Cc4cccc5[nH]nc(N)c45)c3)cc(C(F)(F)F)c2)cn1` [Compound No. 11, 3-((3-Amino-1H-indazol-4-yl)ethynyl)-N-(3-(4-methyl-1H-imidazol-1-yl)-5-(trifluoromethyl)phenyl)benzamide], the half-inhibitory concentration (IC50) in series [4] was found to be 1060 nM; in series [5] it was 15.4 nM; in series [7], 21 nM. Moreover, the GI50 in [6] (setting [10]) was 140 nM.
For `CN1CCN(Cc2cc(NC(=O)c3cccc(C#Cc4cccc5[nH]nc(N)c45)c3)cc(C(F)(F)F)c2)CC1` [Compound No. 12] the same measures were 1150 nM, 60.5 nM, 29.1 nM and 290 nM.
On to `Nc1n[nH]c2cccc(C#Cc3cccc(C(=O)Nc4ccc(Cl)c(C(F)(F)F)c4)c3)c12` [Compound No. 14, 3-((3-Amino-1H-indazol-4-yl)ethynyl)-N-(4-chloro-3-(trifluoromethyl)phenyl)benzamide], for which the IC50 was determined as 255 nM in [5] and 20 nM in [7]. For the same molecule, in series [6] (setting [10]), the GI50 stood at 3330 ± 1180 nM.
Take `CCN1CCN(Cc2ccc(NC(=O)c3cccc(C#Cc4cccc5[nH]nc(N)c45)c3)cc2C(F)(F)F)CC1` [Compound No. 15, 3-((3-Amino-1H-indazol-4-yl)ethynyl)-N-(4-((4-ethylpiperazin-1-yl)methyl)-3-(trifluoromethyl)phenyl)benzamide]: in series [4], the “inhibitory activity against the T315I point mutation of ABL (in words)” value is recorded as “excellent inhibitory activity” and the IC50 was found to be 5.82 nM. In [5], the “inhibitory activity against ABL (in words)” value was “excellent inhibitory activity” and half-maximal inhibition (IC50) was put at 0.625 nM. In series [6], the “proliferation inhibitory effect on K-562 cancer cells (in words)” value is recorded as “excellent anti-proliferative activity”, the “fold higher inhibitory effect than imatinib (K-562 GI50)” value stood at 8.9 fold and the “fold higher inhibitory effect than nilotinib (K-562 GI50)” value is listed as 2.7 fold. Also, the GI50 in series [6] (setting [11]) turned out to be 30 nM. Also, in series [6] (setting [10]), the GI50 stood at 30 nM. In series [7], the “inhibitory activity against DDR1 (in words)” value is listed as “excellent inhibitory activity” and the IC50 is 3.7 nM.
For `Nc1n[nH]c2cccc(C#Cc3cccc(C(=O)Nc4ccc(CN5CCOCC5)c(C(F)(F)F)c4)c3)c12` [Compound No. 16], the IC50 in [4] turned out to be 1360 nM; in series [5], 103 nM; in [7] it was 16.3 nM. Further, the GI50 in series [6] (setting [10]) was determined as 520 ± 1250 nM.
Regarding `Cc1ccc(NC(=O)c2ccc(CN3CCN(C)CC3)cc2)cc1Nc1nccc(-c2cccnc2)n1` [Imatinib], the “share of patients in whom effective” value in series [8] was 67%. In addition, the GI50 in series [1] was 267 ± 30 nM.
`Cc1cn(-c2cc(NC(=O)c3ccc(C)c(Nc4nccc(-c5cccnc5)n4)c3)cc(C(F)(F)F)c2)cn1` [Nilotinib]: in [1], the GI50 is 80 ± 90 nM.
Take `Cc1ccc(C(=O)Nc2ccc(CN3CCN(C)CC3)c(C(F)(F)F)c2)cc1C#Cc1cnc2cccnn12` [Ponatinib]: the “share of patients with side effects such as thrombosis or narrowing of blood vessel walls” value in [9] is 20%.
